Results as given in US10815238B2, “Antimicrobial compounds and methods of making and using the same” (BIOVERSYS AG, priority 2013, dated 2020).

Each compound was assayed on Eschericia coli (E. coli) strain ATCC25922 (assay: Standard microdilution assay, MIC against E. coli ATCC25922). Settings: Escherichia coli; E. coli strain ATCC25922, standard microdilution assay; cutoff 16 micrograms/mL; read-out: MIC E. Coli.
Format: cell-based
Method: The in vitro activity of the compounds of the present invention can be determined. Antimicrobial testing is typically performed to determine the minimum inhibitory concentration (MIC). Minimum inhibitory concentrations (MICs) are determined by the microdilution method in a final volume of 100 μl according to protocols outlined by The Clinical and Laboratory Standards Institute (CLSI). Performance standards for reference strains are assessed within the same experimental design to maintain quality control. See, for example, Clinical Laboratory Standards Institute: Methods for dilution antimicrobial susceptibility tests for bacteria that grow aerobically M7-A8. Approved Standard-Eighth Edition. Wayne, Pa.: CLSI; December 2008; and Clinical Laboratory Standards Institute: Performance Standards for Antimicrobial Susceptibility Testing M100-S20; Approved Standard-Twentieth Edition. Wayne, Pa.: CLSI; June 2010.
The compounds of the present invention were tested for antimicrobial activity. The Compounds 1-582 were run against Eschericia coli (E. coli) strain ATCC25922 and Compounds 320-582 were run against Staphylococcus aureus (S. aureus) 11540 strain using a standard microdilution assay to determine minimum inhibitory concentrations (MICs). […] It will be recognized by one skilled in the art that the compounds can be assessed against other bacterial organisms and that the presentation of data for activity against Eschericia coli and Staphylococcus aureus are illustrative and in no way is intended to limit the scope of the present invention. The compounds of the present invention can be assayed against a range of other microorganisms depending upon the performance activity desired to be gathered. Furthermore, the “+” and “−” representation and the selection of a cutoff value of 16 micrograms/mL is also illustrative and in no way is intended to limit the scope of the present invention.
`CC(=O)OC[C@H](N)CCCc1cc(Cl)c(F)c(-c2cc3cn(-c4ccc([C@H](C)NCCCNC(=N)N)cc4)c(=O)nc3[nH]2)c1` [Compound 295] showed an MIC of under 16 µg/mL.
Work on `C[C@H](N)CCCc1cc(Cl)c(F)c(-c2cc3cn(-c4ccc([C@H](C)NCC[C@@H](CCCO)NC(=N)N)cc4)c(=O)nc3[nH]2)c1` [Compound 239] yielded an MIC of under 16 µg/mL.
With `C[C@H](NCCCNC(=N)N)c1ccc(-n2cc3cc(-c4cc(CCC[C@@H](N)CO)cc(SC(F)(F)F)c4)[nH]c3nc2=O)cc1` [Compound 31] the MIC was under 16 µg/mL.
In the case of `COc1ccc(Cn2cc(C[C@H](NCCCNC(=N)N)c3ccc(-n4cc5cc(-c6cc(CCC[C@H](C)N)cc(SC(F)(F)F)c6)[nH]c5nc4=O)cc3)nn2)cc1` [Compound 43], the MIC is reported as under 16 µg/mL.
With `N=C(N)NCCCNCc1ccc(-n2cc3cc(-c4cc(OC(F)(F)F)cc([C@H]5C[C@H](N)CCO5)c4)[nH]c3nc2=O)cc1` [Compound 35] the MIC was under 16 µg/mL.
Work on `C[C@H](N)CCCc1cc(Cl)c(F)c(-c2cc3cn(-c4ccc([C@H](C)NCC[C@H](CCO)NC(=N)N)cc4)c(=O)nc3[nH]2)c1` [Compound 244] yielded an MIC of under 16 µg/mL.
`C[C@H](NCCCNC(=N)N)c1ccc(-n2cc3cc(-c4cc(CCC[C@H](C)NC(=O)OCc5ccccc5)cc(Cl)c4F)[nH]c3nc2=O)cc1` [Compound 67] showed an MIC of under 16 µg/mL.
With `CN[C@H](CCNCc1ccc(-n2cc3cc(-c4cc(CCC[C@H](C)N)cc(Cl)c4F)[nH]c3nc2=O)cc1)COC` [Compound 179] the MIC was under 16 µg/mL.
`C[C@H](N)CCCc1cc(-c2cc3cn(-c4ccc([C@@H](NCCCNC(=N)N)c5cccnc5)cc4)c(=O)nc3[nH]2)cc(C(F)(F)F)c1` [Compound 84] was tested, and the MIC was under 16 µg/mL.
Work on `C[C@H](NCCCNC(=N)N)c1ccc(-n2cc3cc(-c4cc(SC(F)(F)F)cc([C@H](O)CC[C@H](N)CCO)c4)[nH]c3nc2=O)cc1` [Compound 132] yielded an MIC of under 16 µg/mL.
`COc1ccc(CNCc2ccc(-n3cc4cc(-c5cc(CCC[C@H](C)N)cc(Cl)c5F)[nH]c4nc3=O)cc2)cn1` [Compound 145] showed an MIC of over 16 µg/mL.
For `C[C@H](N)CCCc1cc(-c2cc3cn(-c4ccc([C@H](C)NCC[C@@H](C)NC(=N)N)cc4)c(=O)nc3[nH]2)cc(C(F)(F)F)c1` [Compound 200], the MIC was under 16 µg/mL.
For `C[C@H](N)CCCc1cc(Cl)c(F)c(-c2cc3cn(-c4ccc(CNCC[C@@H](N)CN)cc4)c(=O)nc3[nH]2)c1` [Compound 182], the MIC was under 16 µg/mL.
Compound `C[C@H](N)CCCc1cc(-c2cc3cn(-c4ccc([C@@H](NCCCNC(=N)N)C(N)=O)cc4)c(=O)nc3[nH]2)cc(C(F)(F)F)c1` [Compound 59] has an MIC of under 16 µg/mL.
With `CC(C)[C@@H](N)CCNCc1ccc(-n2cc3cc(-c4cc(CCC[C@H](C)N)cc(Cl)c4F)[nH]c3nc2=O)cc1` [Compound 156] the MIC was under 16 µg/mL.
Work on `C[C@H](N)CCCc1cc(OC(F)(F)F)c(F)c(-c2cc3cn(-c4ccc([C@H](C)NCC[C@@H](CO)NC(=N)N)cc4)c(=O)nc3[nH]2)c1` [Compound 265] yielded an MIC of under 16 µg/mL.
For `O=C(O)CCNCc1ccc(-n2cc3cc[nH]c3nc2=O)cc1` [Compound 138], the MIC was over 16 µg/mL.
With `C[C@H](N)CCCc1cc(-c2cc3cn(-c4ccc([C@H](C)N[C@@H](C)CCNC(=N)N)cc4)c(=O)nc3[nH]2)cc(C(F)(F)F)c1` [Compound 220] the MIC was under 16 µg/mL.
`C[C@H](N)CCCc1cc(-c2cc3cn(-c4ccc([C@H](C)NCCCN(C)C(=N)N)cc4)c(=O)nc3[nH]2)cc(C(F)(F)F)c1` [Compound 211] showed an MIC of under 16 µg/mL.
`C[C@H](N)CCCc1cc(SC(F)(F)F)cc(-c2cc3cn(-c4ccc(CNCc5cccnc5)cc4)c(=O)nc3[nH]2)c1` [Compound 113] was tested, and the MIC was over 16 µg/mL.
Work on `C[C@H](N)CCCc1cc(SC(F)(F)F)cc(-c2cc3cn(-c4ccc(CN)cc4)c(=O)nc3[nH]2)c1` [Compound 137] yielded an MIC of over 16 µg/mL.
`C[C@H](NCCCNC(=N)N)c1ccc(-n2cc3cc(-c4cc(COC[C@@H](N)CO)cc(SC(F)(F)F)c4)[nH]c3nc2=O)cc1` [Compound 80] gave an MIC of under 16 µg/mL.
For `C[C@H](N)CCCc1cc(Cl)c(F)c(-c2cc3cn(-c4ccc([C@H](C)NCC[C@@H](CCN)NC(=N)N)cc4)c(=O)nc3[nH]2)c1` [Compound 313], the MIC was under 16 µg/mL.
`C[C@H](N)CC[C@H](O)c1cc(SC(F)(F)F)cc(-c2cc3cn(-c4ccc([C@H](C)NCCCNC(=N)N)cc4)c(=O)nc3[nH]2)c1` [Compound 68] gave an MIC of under 16 µg/mL.
Work on `C[C@H](N)CCCc1cc(Cl)c(F)c(-c2cc3cn(-c4ccc([C@H](C)NCC[C@H](CN)NC(=N)N)cc4)c(=O)nc3[nH]2)c1` [Compound 304] yielded an MIC of under 16 µg/mL.
Work on `C[C@H](NCCCNC(=N)N)c1ccc(-n2cc3cc(-c4cc(SC(F)(F)F)cc([C@H](O)CC[C@@H](N)CCO)c4)[nH]c3nc2=O)cc1` [Compound 133] yielded an MIC of under 16 µg/mL.
With `C[C@H](N)CCCc1cc(OC(F)(F)F)c(F)c(-c2cc3cn(-c4ccc([C@H](C)NCC[C@H](CCO)NC(=N)N)cc4)c(=O)nc3[nH]2)c1` [Compound 245] the MIC was under 16 µg/mL.
`C=C[C@H](N)CC[C@H](O)c1cc(SC(F)(F)F)cc(-c2cc3cn(-c4ccc([C@H](C)NCCCNC(=N)N)cc4)c(=O)nc3[nH]2)c1` [Compound 91] showed an MIC of under 16 µg/mL.
Compound `C=C[C@@H](N)CC[C@@H](O)c1cc(SC(F)(F)F)cc(-c2cc3cn(-c4ccc([C@H](C)NCCCNC(=N)N)cc4)c(=O)nc3[nH]2)c1` [Compound 79] has an MIC of under 16 µg/mL.
`C[C@H](N)CCCc1cc(Cl)c(F)c(-c2cc3cn(-c4ccc(CNCC[C@H](CCO)NC(=N)N)cc4)c(=O)nc3[nH]2)c1` [Compound 185] was tested, and the MIC was under 16 µg/mL.
In the case of `CSC[C@H](N)COCc1cc(SC(F)(F)F)cc(-c2cc3cn(-c4ccc([C@H](C)NCCCNC(=N)N)cc4)c(=O)nc3[nH]2)c1` [Compound 83], the MIC is reported as under 16 µg/mL.
For `C=C[C@H](N)CCNCc1ccc(-n2cc3cc(-c4cc(CCC[C@H](C)N)cc(Cl)c4F)[nH]c3nc2=O)cc1` [Compound 143], the MIC was under 16 µg/mL.
Work on `C[C@H](N)CCCc1cc(Cl)c(F)c(-c2cc3cn(-c4ccc([C@@H](NCCCNC(=N)N)C(N)=O)cc4)c(=O)nc3[nH]2)c1` [Compound 32] yielded an MIC of under 16 µg/mL.
`C[C@H](N)CCCc1cc(-c2cc3cn(-c4ccc([C@@H](CCN)NCCCNC(=N)N)cc4)c(=O)nc3[nH]2)cc(C(F)(F)F)c1` [Compound 6] gave an MIC of under 16 µg/mL.
`C[C@H](N)CCCc1cc(SC(F)(F)F)cc(-c2cc3cn(-c4ccc(CNCC#N)cc4)c(=O)nc3[nH]2)c1` [Compound 170] showed an MIC of over 16 µg/mL.
`COc1ccc(CNCc2ccc(-n3cc4cc(-c5cc(CCC[C@H](C)N)cc(SC(F)(F)F)c5)[nH]c4nc3=O)cc2)cn1` [Compound 146] showed an MIC of over 16 µg/mL.
`C[C@H](N)CCCc1cc(Cl)c(F)c(-c2[nH]c3nc(=O)n(-c4ccc([C@H](C)NCCCNC(=N)N)cc4)cc3c2Br)c1` [Compound 286] showed an MIC of under 16 µg/mL.
With `C=CC[C@@H](CCN[C@@H](C)c1ccc(-n2cc3cc(-c4cc(CCC[C@H](C)N)cc(Cl)c4F)[nH]c3nc2=O)cc1)NC(=N)N` [Compound 252] the MIC was under 16 µg/mL.
`C[C@H](N)CCCc1cc(Cl)c(F)c(-c2cc3cn(-c4ccc(CNCC[C@@H]5CN=C(N)N5)cc4)c(=O)nc3[nH]2)c1` [Compound 204] was tested, and the MIC was under 16 µg/mL.
`COc1ccc([C@H](NCCCNC(=N)N)c2ccc(-n3cc4cc(-c5cc(CCC[C@H](C)N)cc(Cl)c5F)[nH]c4nc3=O)cc2)cc1` [Compound 5] showed an MIC of under 16 µg/mL.
`C[C@H](N)CCCc1cc(-c2cc3cn(-c4ccc([C@H](Cn5ccnn5)NCCCNC(=N)N)cc4)c(=O)nc3[nH]2)cc(C(F)(F)F)c1` [Compound 94] gave an MIC of under 16 µg/mL.
For `C[C@H](N)CCCc1cc(-c2cc3cn(-c4ccc([C@H](CCCO)NCCCNC(=N)N)cc4)c(=O)nc3[nH]2)cc(C(F)(F)F)c1` [Compound 101], the MIC was under 16 µg/mL.
In the case of `C[C@H](N)CCCc1cc(Cl)c(F)c(-c2cc3cn(-c4ccc([C@H](CCCO)NCCCNC(=N)N)cc4)c(=O)nc3[nH]2)c1` [Compound 99], the MIC is reported as under 16 µg/mL.
For `COCC[C@H](NCCCNC(=N)N)c1ccc(-n2cc3cc(-c4cc(CCC[C@H](C)N)cc(C(F)(F)F)c4)[nH]c3nc2=O)cc1` [Compound 28], the MIC was under 16 µg/mL.
`C[C@H](N)CCCc1cc(Cl)c(F)c(-c2cc3cn(-c4ccc([C@H](Cn5ccnn5)NCCCNC(=N)N)cc4)c(=O)nc3[nH]2)c1` [Compound 87] was tested, and the MIC was under 16 µg/mL.
Work on `C[C@H](NCCCNC(=N)N)c1ccc(-n2cc3cc(-c4cc(OC(F)(F)F)cc([C@H]5C[C@H](N)CCO5)c4)[nH]c3nc2=O)cc1` [Compound 36] yielded an MIC of under 16 µg/mL.
With `C[C@H](N)CCCc1cc(SC(F)(F)F)cc(-c2cc3cn(-c4ccc([C@@H](NCCCNC(=N)N)c5cccnc5)cc4)c(=O)nc3[nH]2)c1` [Compound 66] the MIC was under 16 µg/mL.
With `C=CC[C@@H](NCCCNC(=N)N)c1ccc(-n2cc3cc(-c4cc(CCC[C@H](C)N)cc(Cl)c4F)[nH]c3nc2=O)cc1` [Compound 3] the MIC was under 16 µg/mL.
In the case of `C[C@H](NCCCNC(=N)N)c1ccc(-n2cc3cc(-c4cc(CCC[C@@H](N)CF)cc(SC(F)(F)F)c4)[nH]c3nc2=O)cc1` [Compound 117], the MIC is reported as under 16 µg/mL.
`C=CCC[C@H](NCCCNC(=N)N)c1ccc(-n2cc3cc(-c4cc(CCC[C@H](C)N)cc(Cl)c4F)[nH]c3nc2=O)cc1` [Compound 81] showed an MIC of under 16 µg/mL.
`O=c1nc2[nH]ccc2cn1-c1ccc(CNCc2cccnc2)cc1` [Compound 109] gave an MIC of over 16 µg/mL.
Work on `C[C@H](N)CCCc1cc(OC(F)(F)F)c(F)c(-c2cc3cn(-c4ccc([C@H](C)NCC[C@H](Cc5c[nH]nn5)NC(=N)N)cc4)c(=O)nc3[nH]2)c1` [Compound 269] yielded an MIC of under 16 µg/mL.
